Source: patent publication US8802711B2, “TRPV1 antagonists” (AbbVie Inc., priority 2011, dated 2014)
Where two headings read alike, the source gives them in different places.

Legend:
[1] = target: T1, human TRPV1 receptor (hTRPV1) (Homo sapiens (Human), UniProt Q8NER1); experiment: Capsaicin activation assay (FLIPR intracellular Ca2+); type: cell-based; details: inhibition of capsaicin-induced intracellular Ca2+ increase, read-out: hTRPV1 cap IC50
Method in brief: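 Antagonism measured as [Ca2+]i fluorescence on FLIPR Tetra: compounds given 3 min ahead of capsaicin, added as 200 nM (4×), to dye-loaded hTRPV1-HEK293 cells. Response taken as baseline-subtracted peak, normalized to the 50 nM capsaicin control; 12-point one-third-log titrations.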

[2] = target: T1, human TRPV1 receptor (hTRPV1); experiment: Acid activation assay (pH 5.0, FLIPR intracellular Ca2+); type: cell-based; details: 37.5 μM antagonist, percentage of the maximal pH 5.0-induced response remaining; for remaining activity at 37.5 µM: read-out: hTRPV1 H+ (max % remain)
Method in brief: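 Antagonism of acid-evoked Ca2+ influx measured by FLIPR Calcium-4 fluorescence after a pH 5.0 DPBS/MES stimulus, with compounds preincubated 3 min over 12 half-log concentrations. Cells: stable hTRPV1-expressing 1321N1 line, dye-loaded 90–120 min in the dark at 25 °C.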

Sprague-Dawley rats [3] = experiment: Rat tail immersion assay (noxious thermosensation); type: in vivo; details: for % Increase in tail withdrawal latency / change in vivo at 100 µmol/kg: rat, 100 μmol/kg oral, one hour post dosing, 55° C. water bath, relative to vehicle; for change in vivo at 100 µmol/kg: 1 h
Procedure: (§1) Adult male Sprague-Dawley rats (250-300 g body weight, Charles River Laboratories, Portage, Mich.) were used. Animal handling and experimental protocols were approved by the Institutional Animal Care and Use Committee (IACUC) at Abbott Laboratories. For all surgical procedures, animals were maintained under isoflurane anesthesia (4-5% to induce, 1-3% to maintain), and the incision sites were sterilized using a 10% povidone-iodine solution prior to and after surgeries.
Compounds were tested for their effects on noxious thermosensation using the tail immersion assay. Testing was performed one hour following oral administration of 100 μmol/kg of the compound in 10% ethanol/20% Tween-80/70% PEG-400 (2 mL/kg). Morphine (6 mg/kg) was administered interperitoneally (i.p.) using saline (2 mL/kg) as the vehicle. For testing, a circulating water bath was heated to 55° C. Thirty to sixty minutes post dosing, the rats were handled for a few seconds to calm them down and then cupped with their back against the tester's hand at a slight angle with head facing away from the tester. With rat in one hand and a 0.01 second stopwatch in the other hand, the tail was quickly immersed 6-8 cm in the water bath or to a distance leaving 2-3 cm of tail out of water. The timer was started simultaneously. When the rat flinched or attempted withdrawal, timer was immediately stopped and the rat's tail was quickly removed from water bath. This response latency (in seconds) was recorded. Process was repeated 3 times with 3-4 minutes between readings and the average response latency was calculated.
For a given example, a percent increase in the average response latency (in seconds) for tail withdrawal relative to a vehicle control was determined. % increase=[(tc−tv)/tv]×100%
tc=response latency (in seconds) with oral dosing of compounds
tv=response latency (in seconds) with oral dosing of vehicle
The % increases in tail withdrawal latency relative to vehicle control are divided into the following categories: […]

Sprague-Dawley rats [4] = experiment: Sodium iodoacetate-induced knee joint osteoarthritic pain model; type: in vivo, rat; details: 10 mg/kg p.o., 1 hour after dosing, % return to normalcy of hind limb grip force
Source text: as §1
Unilateral knee joint osteoarthritis was induced in the rats by a single intra-articular (i.a.) injection of sodium iodoacetate (3 mg in 0.05 mL sterile isotonic saline) into the right knee joint cavity under light isoflurane anesthesia using a 26 G needle. […] Pain behavioral assessment of hind limb grip force was conducted by recording the maximum compressive force exerted on the hind limb strain gauge setup, in a commercially available grip force measurement system (Columbus Instruments, Columbus, Ohio), to elicit paw withdrawal. The grip force data was converted to a maximum hindlimb cumulative compressive force (CFmax) (gram force)/kg body weight for each animal. The analgesic effects of test compounds were determined 20 days following the i.a. injection of sodium iodoacetate. The vehicle control group for each compound being tested was assigned 0% whereas the age matched naïve group was assigned as being 100% (normal). The % effect for each dose group was then expressed as % return to normalcy compared to the naïve group. Test compounds were administered orally in 10% ethanol/20% Tween 80/70% polyethylene glycol-400 vehicle at a volume of 2 mL/kg. The assessment of the analgesic effects of test compounds was made 1 hour following oral administration. The assessment of the analgesic effects of test compounds can be made following a single dose or following repeated administration wherein the frequency of dosing is 1 to 2 times daily. The duration of such repeated daily dosing may last for any time greater than one day. A typical duration of repeated daily dosing is about 5 days to about 12 days.

[5] = Table 1, HEK293 cells expressing human TRPV1
[6] = read-out: % Increase in tail withdrawal latency

T1 sequence (Q8NER1 whole entry): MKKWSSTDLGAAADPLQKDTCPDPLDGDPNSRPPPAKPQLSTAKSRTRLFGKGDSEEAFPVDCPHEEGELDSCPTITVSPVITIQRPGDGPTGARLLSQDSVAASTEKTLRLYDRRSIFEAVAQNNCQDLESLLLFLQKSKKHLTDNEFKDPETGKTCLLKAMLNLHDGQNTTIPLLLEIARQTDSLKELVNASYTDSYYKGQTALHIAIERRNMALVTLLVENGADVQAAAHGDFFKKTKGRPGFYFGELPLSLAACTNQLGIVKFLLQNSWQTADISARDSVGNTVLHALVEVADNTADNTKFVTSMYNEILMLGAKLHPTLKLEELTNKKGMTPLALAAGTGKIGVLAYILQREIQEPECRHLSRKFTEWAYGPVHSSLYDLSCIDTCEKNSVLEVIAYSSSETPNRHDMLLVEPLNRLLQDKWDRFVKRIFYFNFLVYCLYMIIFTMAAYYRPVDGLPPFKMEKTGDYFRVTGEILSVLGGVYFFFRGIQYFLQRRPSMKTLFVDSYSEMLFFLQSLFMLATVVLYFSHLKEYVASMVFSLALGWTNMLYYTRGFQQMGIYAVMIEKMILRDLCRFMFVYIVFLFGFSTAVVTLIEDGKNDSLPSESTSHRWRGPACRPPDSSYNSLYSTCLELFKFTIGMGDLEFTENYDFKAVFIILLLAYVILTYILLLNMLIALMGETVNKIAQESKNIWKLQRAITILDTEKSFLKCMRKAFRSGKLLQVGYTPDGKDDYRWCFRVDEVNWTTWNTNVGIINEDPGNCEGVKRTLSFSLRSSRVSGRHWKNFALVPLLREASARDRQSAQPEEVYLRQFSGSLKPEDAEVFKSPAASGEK

Work on `O=C(Nc1cccc2c1C[C@@H](O)C2)N[C@@H]1CC[C@H](c2ccccc2)C1` [Example 2, 1-[(2S)-2-hydroxy-2,3-dihydro-1H-inden-4-yl]-3-[(1R,3S)-3-phenylcyclopentyl]urea] yielded an IC50 [1, 5] of 29 nM, an IC50 ([1]; Table 2) of 29 nM and a remaining activity at 37.5 µM ([2]; Table 1) of 40%. The remaining activity at 37.5 µM ([2]; Table 2) was 40% and the “% Increase in tail withdrawal latency” value (Sprague-Dawley rats [3]) was “−”.
`O=C(Nc1cccc2[nH]ncc12)N[C@@H]1CC[C@H](c2ccccc2)C1` [Example 7, 1-(1H-indazol-4-yl)-3-[(1R,3S)-3-phenylcyclopentyl]urea] showed an IC50 [1, 5] of 9 nM, an IC50 ([1]; Table 2) of 9 nM and a remaining activity at 37.5 µM ([2]; Table 1) of 32%. The remaining activity at 37.5 µM ([2]; Table 2) was 32% and the “% Increase in tail withdrawal latency” value (Sprague-Dawley rats [3]) was “−”.
With `Cc1cc2c(NC(=O)N[C@@H]3CC[C@@H](c4ccccc4)C3)c(F)ccc2cn1` [Example 20, 1-(6-fluoro-3-methylisoquinolin-5-yl)-3-[(1R,3R)-3-phenylcyclopentyl]urea] the IC50 [1, 5] was 5 nM, the IC50 ([1]; Table 2) was 5 nM and the remaining activity at 37.5 µM ([2]; Table 1) was 32%. The remaining activity at 37.5 µM ([2]; Table 2) was 32% and the “% Increase in tail withdrawal latency” value (Sprague-Dawley rats [3]) was “−”.
Molecule `Cc1cc2c(NC(=O)N[C@H]3CC[C@@H](c4ccccc4)C3)c(F)ccc2cn1` [Example 27, 1-(6-fluoro-3-methylisoquinolin-5-yl)-3-[(1S,3R)-3-phenylcyclopentyl]urea] has an IC50 [1, 5] of 7 nM, an IC50 ([1]; Table 2) of 6 nM and a remaining activity at 37.5 µM ([2]; Table 1) of 60%. For the same molecule, the remaining activity at 37.5 µM ([2]; Table 2) was 60% and the “% Increase in tail withdrawal latency” value (Sprague-Dawley rats [3]) was “−”.
Work on `O=C(Nc1cccc2[nH]ncc12)N[C@@H]1C=C[C@H](c2ccccc2)C1` [Example 48, 1-(1H-indazol-4-yl)-3-[(1S,4R)-4-phenylcyclopent-2-en-1-yl]urea] yielded an IC50 [1, 5] of 42 nM, an IC50 ([1]; Table 2) of 42 nM and a remaining activity at 37.5 µM ([2]; Table 1) of 49%. The remaining activity at 37.5 µM ([2]; Table 2) was 49% and the “% Increase in tail withdrawal latency” value (Sprague-Dawley rats [3]) was “−”.
For `O=C(Nc1cccc2[nH]ncc12)N[C@@H]1CC[C@H](c2ccccc2F)C1` [Example 61, 1-[(1R,3S)-3-(2-fluorophenyl)cyclopentyl]-3-(1H-indazol-4-yl)urea], the IC50 [1, 5] was 32 nM, the remaining activity at 37.5 µM ([2]; Table 1) was 44% and the “% effect” value (Sprague-Dawley rats [4]) was 34%.
For `O=C(Nc1cccc2[nH]ncc12)N[C@H]1CC[C@H](c2cccc(F)c2)C1` [Example 64, 1-[(1S,3S)-3-(3-fluorophenyl)cyclopentyl]-3-(1H-indazol-4-yl)urea], the IC50 [1, 5] was 29 nM, the remaining activity at 37.5 µM ([2]; Table 1) was 25% and the “% effect” value (Sprague-Dawley rats [4]) was 48%.
Work on `O=C(Nc1cccc2[nH]ncc12)N[C@@H]1CC[C@@H](c2ccccc2F)C1` [Example 66, 1-[(1R,3R)-3-(2-fluorophenyl)cyclopentyl]-3-(1H-indazol-4-yl)urea] yielded an IC50 [1, 5] of 8.2 nM, an IC50 ([1]; Table 2) of 8 nM and a remaining activity at 37.5 µM ([2]; Table 1) of 29%. For the same molecule, the remaining activity at 37.5 µM ([2]; Table 2) was 29% and the change in vivo at 100 µmol/kg (Sprague-Dawley rats [3]; [6]) was > 25%.
`Cn1c(=O)ccc2c(NC(=O)N[C@@H]3CC[C@@H](c4cccc(F)c4)C3)cccc21` [Example 78, 1-[(1R,3R)-3-(3-fluorophenyl)cyclopentyl]-3-(1-methyl-2-oxo-1,2-dihydroquinolin-5-yl)urea] showed an IC50 [1, 5] of 6.5 nM, an IC50 ([1]; Table 2) of 7 nM and a remaining activity at 37.5 µM ([2]; Table 1) of 78%. The remaining activity at 37.5 µM ([2]; Table 2) was 78% and the change in vivo at 100 µmol/kg (Sprague-Dawley rats [3]; [6]) was 10 to 25%.
Work on `CN1C(=O)CCc2c(NC(=O)N[C@H]3CC[C@H](c4ccccc4)C3)cccc21` [Example 96, 1-(1-methyl-2-oxo-1,2,3,4-tetrahydroquinolin-5-yl)-3-[(1S,3S)-3-phenylcyclopentyl]urea] yielded an IC50 [1, 5] of 63 nM, an IC50 ([1]; Table 2) of 63 nM and a remaining activity at 37.5 µM ([2]; Table 1) of 66%. The remaining activity at 37.5 µM ([2]; Table 2) was 66% and the change in vivo at 100 µmol/kg (Sprague-Dawley rats [3]; [6]) was 10 to 25%.
`CCc1cc2c(NC(=O)N[C@@H]3CC[C@H](c4ccccc4)C3)c(F)ccc2cn1` [Example 140, 1-(3-ethyl-6-fluoroisoquinolin-5-yl)-3-[(1R,3S)-3-phenylcyclopentyl]urea] showed an IC50 [1, 5] of 9600 nM and a remaining activity at 37.5 µM ([2]; Table 1) of 90%.
In the case of `Cc1nc(N)cc2c(NC(=O)N[C@@H]3CC[C@H](c4ccccc4)C3)cccc12` [Example 141, 1-(3-amino-1-methylisoquinolin-5-yl)-3-[(1R,3S)-3-phenylcyclopentyl]urea], the IC50 [1, 5] is reported as > 37500 nM and the remaining activity at 37.5 µM ([2]; Table 1) is reported as 82%.
`O=C(Nc1ccc2c(c1)NC(=O)C(N1CCOCC1)C2)N[C@@H]1CC[C@H](c2ccccc2)C1` (stereo partly drawn) [Example 142, 1-[3-(morpholin-4-yl)-2-oxo-1,2,3,4-tetrahydroquinolin-7-yl]-3-[(1R,3S)-3-phenylcyclopentyl]urea] was tested, and the IC50 [1, 5] was 116 nM and the remaining activity at 37.5 µM ([2]; Table 1) was 66%.
`O=C(Nc1ccc2c(c1)NC(=O)C(N1CCCOCC1)C2)N[C@@H]1CC[C@H](c2ccccc2)C1` (stereo partly drawn) [Example 143, 1-[3-(1,4-oxazepan-4-yl)-2-oxo-1,2,3,4-tetrahydroquinolin-7-yl]-3-[(1R,3S)-3-phenylcyclopentyl]urea] gave an IC50 [1, 5] of 145 nM and a remaining activity at 37.5 µM ([2]; Table 1) of 24%.
In the case of `COCCN(C)C1Cc2ccc(NC(=O)N[C@@H]3CC[C@H](c4ccccc4)C3)cc2NC1=O` (stereo partly drawn) [Example 144, 1-{3-[(2-methoxyethyl)(methyl)amino]-2-oxo-1,2,3,4-tetrahydroquinolin-7-yl}-3-[(1R,3S)-3-phenylcyclopentyl]urea], the IC50 [1, 5] is reported as > 37500 nM and the remaining activity at 37.5 µM ([2]; Table 1) is reported as 62%.
`CN1CCOc2ccc(NC(=O)N[C@@H]3CC[C@H](c4ccccc4)C3)cc21` [Example 145, 1-(4-methyl-3,4-dihydro-2H-1,4-benzoxazin-6-yl)-3-[(1R,3S)-3-phenylcyclopentyl]urea] showed an IC50 [1, 5] of 614 nM and a remaining activity at 37.5 µM ([2]; Table 1) of 91%.
For `O=C(Nc1ccc2c(c1)NCCO2)N[C@@H]1CC[C@H](c2ccccc2)C1` [Example 146, 1-(3,4-dihydro-2H-1,4-benzoxazin-6-yl)-3-[(1R,3S)-3-phenylcyclopentyl]urea], the IC50 [1, 5] was > 37500 nM and the remaining activity at 37.5 µM ([2]; Table 1) was 39%.
In the case of `CC(=O)Nc1nc2c(Oc3cc(-c4ccc(C(F)(F)F)cc4)ncn3)cccc2s1` [H, reference compound], the “hTRPV1 H+ (max % remain)” value ([2]; Table 2) is reported as 10% and the change in vivo at 100 µmol/kg (Sprague-Dawley rats [3]; [6]) is reported as > 25%.
In the case of `CC(C)(C)c1ccc(Nc2ncnc3cc(-c4ncccc4C(F)(F)F)ccc23)cc1` [I, reference compound], the remaining activity at 37.5 µM ([2]; Table 2) is reported as 1% and the change in vivo at 100 µmol/kg (Sprague-Dawley rats [3]; [6]) is reported as > 25%.
With `CC(C)(C)c1ccc2c(c1)CC[C@H]2NC(=O)Nc1cccc2[nH]ncc12` [J, reference compound] the remaining activity at 37.5 µM ([2]; Table 2) was 1% and the change in vivo at 100 µmol/kg (Sprague-Dawley rats [3]; [6]) was > 25%.
`Cc1nc(Nc2cccc3c2C[C@H](O)CC3)oc1-c1ccc(C(F)(F)F)cc1` [K, reference compound] was tested, and the remaining activity at 37.5 µM ([2]; Table 2) was 3% and the change in vivo at 100 µmol/kg (Sprague-Dawley rats [3]; [6]) was > 25%.
In the case of `Cc1cccnc1N1CC=C(C(=O)Nc2ccc(S(=O)(=O)C(F)(F)F)cc2)CC1` [L, reference compound], the remaining activity at 37.5 µM ([2]; Table 2) is reported as 2% and the change in vivo at 100 µmol/kg (Sprague-Dawley rats [3]; [6]) is reported as > 25%.
With `CN1CC[C@]23c4c5ccc(O)c4O[C@H]2[C@@H](O)C=C[C@H]3[C@H]1C5` [Morphine, reference compound] the change in vivo at 6 mg/kg (Sprague-Dawley rats [3]; Rattus norvegicus, ip, read-out: % Increase in tail withdrawal latency) was > 25%.
